Assay results as given in patent publication US12558326B2, “Method for treating epilepsy” (Xenon Pharmaceuticals Inc., priority 2018, dated 2026).

Tested on: CF-1 mice
Assay: 6 Hz seizure test (44 mA, 3 sec, corneal electrodes) in vivo
Design: species or system mouse
Conditions: 20 mg/kg IP; for percentage of animals protected against psychomotor seizures: one hour before assay, 6 Hz 44 mA, n=16 per group
Description: This assay tests the ability of a test compound to block a psychomotor seizure induced by long-duration, low frequency (6 Hz) stimulation, and provides an art-accepted model of therapy-resistant partial seizure (Brown et al., 1953 J. Pharmacol. Exp. Therapeut. 107(3):273-283; White H S, Woodhead J H, Wilcox K S, General principles: discovery and preclinical development of antiepileptic drugs, In: Levy R H, Mattson R H, Meldrum B S, Perucca E, editors. Antiepileptic drugs 5th ed Philadelphia: Lippincott Williams & Wilkins; 2002. pp. 36-48; Hartman et al., 2008 Epilepsia 49(2):334-339).
Methods. Adult male CF1 mice (18-25 g) are pretreated intraperitoneally (i.p.) with the test compound at a dose of 20-100 mg/kg. If toxicity is noted in a pre-test screen for toxic effects when the test compound is administered i.p. at varying dosages, the dose is modified to avoid overt toxic effects. Each treatment group (n=4-16 mice/group) is examined for anticonvulsive effects at one or more of five time points (¼, ½, 1, 2, and 4 hr) after treatment with the test compound. Following pretreatment, each mouse receives a drop of 0.5% tetracaine hydrochloride applied to each eye. The mouse is then challenged with low-frequency (6 Hz) stimulation for 3 sec delivered through corneal electrodes. The low-frequency, long-duration stimuli are initially delivered at 32 mA intensity. Animals are manually restrained and released immediately following the stimulation and observed for the presence or absence of seizure activity. If the test compound is effective in the 32 mA screen, an additional assay is performed in which the stimulation current is increased to 44 mA but otherwise using the same protocol as described above. For dose-response studies, an n of 8 mice is used per dose and a dose-response curve is generated at the time of peak effect (TPE) at the specific stimulation intensity.
Typically, the 6 Hz stimulation results in a seizure characterized by a minimal clonic phase that is followed by stereotyped, automatistic behaviors, including jaw clonus, forelimb clonus, twitching of the vibrissae, and/or Straub-tail. Animals not displaying such behaviors are considered protected. Seizure score can be used as an additional measure of the efficacy of the investigational compound (Racine, R. J. 1972 Electroencephalogr. Clin. Neurophysiol. 32(3):281-294). Data are analyzed by Mann-Whitney U test, with p<0.05 determined to be statistically significant. For data obtained at each time point, results are expressed as the total number of animals protected out of the number of animals tested over time (e.g., 2/4 represents 2 out of 4 mice tested are protected).
In this Example, the in vivo anticonvulsant effects of candidate AEDs were tested in mice using the 6 Hz seizure test. The 6 Hz seizure test was performed essentially as described above in Biological Example 2, with minor modifications as presented here, including data collection at a time point that was one hour after administration of the candidate AEDs.
Compounds: Candidate AED compounds were prepared as described above unless otherwise noted, and were as follows: • Racemic fenfluramine ([rac]-fenfluramine hydrochloride); • (R)-fenfluramine ([R]-(−)-fenfluramine hydrochloride); • Racemic norfenfluramine ([rac]-norfenfluramine) was purchased from Toronto Research Chemicals, North York, Ontario, Canada; • (R)-norfenfluramine ([R]-(−)-norfenfluramine.
Animals: Adult male CF-1 albino mice (25-35 g) purchased from Harlan-Envigo (East Millstone, NJ). The mice were housed four per cage and had access to filtered water and chow ad libitum, throughout the experiment.
Compound Preparation and Administration: All four compounds were solubilized in sterile aqueous saline solution (0.9% NaCl). Compounds were administered to animals (16 mice in each treatment group) via intraperitoneal (IP) injection at 10 ml/kg volume, one hour prior to the assay. Control animals received vehicle (saline) only. […]

Row | Structure (SMILES) | percentage of animals protected against psychomotor seizures | protective activity against seizures in the 6 Hz psychomotor seizure assay (summary statement)
1 | CCNC(C)Cc1cccc(C(F)(F)F)c1 (racemic) [(rac)-fenfluramine, (R/S)—N-ethyl-1-(3-(trifluoromethyl)phenyl)propan-2-amine] | 37.5% | exhibited protective activity against seizures
2 | CCN[C@H](C)Cc1cccc(C(F)(F)F)c1 [(R)-fenfluramine, (R)—N-ethyl-1-(3-(trifluoromethyl)phenyl)propan-2-amine] | 31.3% | –
